Several values for one entry are separate records, joined by “and”; a condition that tells them apart may be missing. Identical values can stand only once.
Columns and labels:
[1] = target: T1, human DNA polymerase eta (hpol η) (Homo sapiens, UniProt Q9Y253); assay: Fluorescence-based polymerase strand-displacement assay, hpol η; format: biochemical; conditions: for IC50: read-out: IC50 for inhibition of hpol η, 10 nM hpol η, 50 nM DNA, 0.1 mM dTTP, mean ± standard deviation, triplicate
T1 sequence (Q9Y253 1-437): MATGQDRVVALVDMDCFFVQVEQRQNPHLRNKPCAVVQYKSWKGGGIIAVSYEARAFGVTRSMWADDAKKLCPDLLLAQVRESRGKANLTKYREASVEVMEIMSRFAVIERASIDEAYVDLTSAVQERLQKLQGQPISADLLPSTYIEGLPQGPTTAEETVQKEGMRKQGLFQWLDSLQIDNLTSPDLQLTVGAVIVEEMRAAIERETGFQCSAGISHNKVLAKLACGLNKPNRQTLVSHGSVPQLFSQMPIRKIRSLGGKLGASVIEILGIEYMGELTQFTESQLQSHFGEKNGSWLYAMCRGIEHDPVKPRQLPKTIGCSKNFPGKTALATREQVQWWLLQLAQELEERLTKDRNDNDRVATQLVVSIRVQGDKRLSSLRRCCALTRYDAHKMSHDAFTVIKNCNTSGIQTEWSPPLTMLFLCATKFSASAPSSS

[2] = system: hpol β; conditions: cited from earlier work
[3] = target: T2, hpol ι (Homo sapiens, UniProt Q9UNA4); conditions: cited from earlier work
T2 sequence (Q9UNA4 26-446): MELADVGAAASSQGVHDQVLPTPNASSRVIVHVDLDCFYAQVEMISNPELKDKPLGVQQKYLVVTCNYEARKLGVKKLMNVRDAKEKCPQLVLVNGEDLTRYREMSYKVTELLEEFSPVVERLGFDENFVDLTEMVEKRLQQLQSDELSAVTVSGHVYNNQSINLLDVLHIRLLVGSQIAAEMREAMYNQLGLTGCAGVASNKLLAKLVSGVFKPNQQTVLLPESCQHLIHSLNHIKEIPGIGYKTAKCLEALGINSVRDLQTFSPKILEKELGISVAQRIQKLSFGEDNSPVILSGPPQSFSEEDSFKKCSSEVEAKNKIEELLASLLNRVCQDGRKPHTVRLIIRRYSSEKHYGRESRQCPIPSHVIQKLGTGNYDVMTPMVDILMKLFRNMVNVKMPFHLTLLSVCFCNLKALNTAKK

[4] = system: hpol η; conditions: cited from earlier work
[5] = system: human tumor cell lines; conditions: cited from earlier work
[6] = target: T3, human Y-family DNA polymerase kappa (hpol κ) (Homo sapiens, UniProt Q9UBT6); assay: Fluorescence-based polymerase assay, hpol κ; format: biochemical; conditions: read-out: IC50 for inhibition of hpol κ; 3 nM hpol κ, 60 nM DNA; mean ± standard deviation
T3 sequence (Q9UBT6 19-526): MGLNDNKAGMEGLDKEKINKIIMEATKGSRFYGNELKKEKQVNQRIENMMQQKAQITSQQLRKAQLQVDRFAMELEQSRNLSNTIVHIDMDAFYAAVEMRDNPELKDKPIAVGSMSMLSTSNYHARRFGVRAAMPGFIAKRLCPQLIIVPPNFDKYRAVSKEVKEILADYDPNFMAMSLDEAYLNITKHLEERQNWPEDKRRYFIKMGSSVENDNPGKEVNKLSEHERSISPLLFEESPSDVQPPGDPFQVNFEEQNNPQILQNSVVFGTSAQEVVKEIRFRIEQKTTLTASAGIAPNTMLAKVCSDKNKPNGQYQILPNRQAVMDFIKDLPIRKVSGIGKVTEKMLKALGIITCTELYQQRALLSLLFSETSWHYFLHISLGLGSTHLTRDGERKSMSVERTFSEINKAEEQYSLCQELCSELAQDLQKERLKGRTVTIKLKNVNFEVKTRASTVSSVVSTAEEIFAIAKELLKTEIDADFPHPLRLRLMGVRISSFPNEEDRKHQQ

[7] = target: T4, hetero-dimeric hpol γ (Homo sapiens, UniProt P54098); assay: Fluorescence-based polymerase assay, hpol γ; format: biochemical; conditions: read-out: IC50 for inhibition of hpol γ; 10 nM hpol γ, 50 nM DNA; mean ± standard deviation
T4 sequence (P54098 1-1239): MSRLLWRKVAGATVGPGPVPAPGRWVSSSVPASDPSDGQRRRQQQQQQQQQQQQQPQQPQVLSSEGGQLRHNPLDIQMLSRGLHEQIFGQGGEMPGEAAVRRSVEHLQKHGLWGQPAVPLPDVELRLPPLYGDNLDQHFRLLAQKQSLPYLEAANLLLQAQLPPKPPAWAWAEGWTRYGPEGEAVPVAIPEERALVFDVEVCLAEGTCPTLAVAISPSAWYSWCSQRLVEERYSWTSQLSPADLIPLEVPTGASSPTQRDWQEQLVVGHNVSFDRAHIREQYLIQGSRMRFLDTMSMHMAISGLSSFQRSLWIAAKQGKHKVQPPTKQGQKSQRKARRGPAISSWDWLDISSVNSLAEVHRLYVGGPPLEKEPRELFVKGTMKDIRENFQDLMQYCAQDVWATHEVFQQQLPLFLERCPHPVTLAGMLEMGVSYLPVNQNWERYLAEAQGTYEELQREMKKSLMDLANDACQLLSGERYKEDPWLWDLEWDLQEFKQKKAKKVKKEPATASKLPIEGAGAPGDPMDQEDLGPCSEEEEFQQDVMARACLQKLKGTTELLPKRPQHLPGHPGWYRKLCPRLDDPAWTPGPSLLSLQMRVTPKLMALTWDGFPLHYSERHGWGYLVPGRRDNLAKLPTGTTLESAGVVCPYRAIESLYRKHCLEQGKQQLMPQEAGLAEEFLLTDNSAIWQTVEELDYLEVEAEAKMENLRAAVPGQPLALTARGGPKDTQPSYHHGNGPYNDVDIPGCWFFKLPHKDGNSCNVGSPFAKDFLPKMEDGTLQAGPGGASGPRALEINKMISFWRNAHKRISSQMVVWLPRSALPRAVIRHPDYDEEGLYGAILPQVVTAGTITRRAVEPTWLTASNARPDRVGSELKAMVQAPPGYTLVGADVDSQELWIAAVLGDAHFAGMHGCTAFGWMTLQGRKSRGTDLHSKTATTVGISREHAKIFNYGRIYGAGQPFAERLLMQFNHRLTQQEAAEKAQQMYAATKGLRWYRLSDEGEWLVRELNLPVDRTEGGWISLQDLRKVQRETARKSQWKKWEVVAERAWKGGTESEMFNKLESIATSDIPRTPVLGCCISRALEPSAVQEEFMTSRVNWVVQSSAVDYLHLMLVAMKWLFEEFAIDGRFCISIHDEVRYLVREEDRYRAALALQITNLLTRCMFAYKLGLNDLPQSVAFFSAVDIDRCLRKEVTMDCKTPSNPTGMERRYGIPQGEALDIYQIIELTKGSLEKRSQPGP
T4 sequence (Q9UHN1 26-485 partner limits assumed): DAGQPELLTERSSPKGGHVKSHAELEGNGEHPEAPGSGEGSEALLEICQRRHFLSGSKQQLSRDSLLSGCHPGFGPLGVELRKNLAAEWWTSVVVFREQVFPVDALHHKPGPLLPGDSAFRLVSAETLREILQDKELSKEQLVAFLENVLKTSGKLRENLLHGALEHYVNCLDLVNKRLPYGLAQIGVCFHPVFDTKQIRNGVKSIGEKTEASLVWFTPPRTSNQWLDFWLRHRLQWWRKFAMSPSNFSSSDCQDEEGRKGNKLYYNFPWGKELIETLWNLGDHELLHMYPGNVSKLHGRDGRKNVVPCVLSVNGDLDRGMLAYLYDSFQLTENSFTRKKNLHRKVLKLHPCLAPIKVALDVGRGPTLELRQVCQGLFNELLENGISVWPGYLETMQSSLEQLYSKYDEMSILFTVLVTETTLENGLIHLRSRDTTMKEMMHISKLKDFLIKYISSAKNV

SMILES | IC50 [1] | IC50 for inhibition of hpol β [2] | Specificity against hpol β [2] | IC50 for inhibition of hpol ι [3] | IC50 for inhibition of hpol η [4] | other results
O=C1NC(=S)NC(=O)C1=Cc1cn(C(=O)c2ccc3ccccc3c2)c2ccccc12 [ITBA-18] | 67.8 ± 3.3 µM | – | – | – | – | Inhibition of hpol η activity (percent activity relative to control), in words ([1]; 50 μM compound, relative to DMSO control (Figure 4C)): roughly equal activity against hpol η
O=C(O)C1=CC(=C(c2ccc(O)c(C(=O)O)c2)c2ccc(O)c(C(=O)O)c2)C=CC1=O [aurintricarboxylic acid] | – | sub-micromolar | greater than 2 fold | sub-micromolar | sub-micromolar | –
CC(C)c1ccc2c(c1)c(SC(C)(C)C)c(CC(C)(C)C(=O)O)n2Cc1ccc(Cl)cc1 [MK886] | – | – | – | – | – | Inhibition of hpol ι relative to other Y-family pols ([3]; hpol ι versus other Y-family pols): five- to eight-times more effectively; IC50 ([3]; read-out: IC50 for inhibition of hpol ι): 9 µM; IC50 ([4]; read-out: IC50 for inhibition of hpol η): ~46 µM
O=C1NC(=S)NC(=O)C1=Cc1cn(C(=O)c2cccc3ccccc23)c2ccc(Cl)cc12 [ITBA-17] | – | – | – | – | – | Anti-proliferative and cytotoxic properties [5]: potent anti-proliferative and cytotoxic properties
O=c1oc2c(O)c(O)cc3c(=O)oc4c(O)c(O)cc1c4c23 [ellagic acid] | – | sub-micromolar | greater than 2 fold | sub-micromolar | sub-micromolar | –
O=C1NC(=S)NC(=O)C1=Cc1cn(C(=O)c2cccc3ccccc23)c2ccc(Cl)cc12 [ITBA-16] | 16 µM and 15.8 µM | – | – | – | – | IC50 [6]: 32.9 ± 3.2 µM; Fold by which IC50 for hpol η is lower than any of the other pols tested ([1]; hpol η versus seven other polymerases): over 2 fold; IC50 [7]: 35.3 ± 2.9 µM

— paper PMC3746001 (ACS chemical biology, 2013)
